Where two headings read alike, the source gives them in different places.
How the values were obtained:
Salmonella typhimurium [1] = test: Example 1: effect of pH buffering of acetic and propionic acid on antimicrobial activity in water; assay type: cell-based; conditions: for MIC at 4 Hr / MIC at 24 HR: Minimum Inhibitory Concentrations, by linear regression over 0.025-0.1% acid solutions, pH 3
Method: Propionic and acetic acids were buffered with ammonium hydroxide to pHs ranging from 1 to 7. Acid contents of the buffered solutions were determined by a weight to weight ratio calculation to obtain the same acid content in the test solutions. […] The pHs of the deionized water solutions were recorded and any problems with solubility noted.
(§1) 100 ul of a nutrient broth culture of Salmonella typhimurium was added to each dilution tube. After addition, tubes were vortexed and allowed to stand. At 4 and 24 hours after addition of the inoculum, 100 ul of the solution was plated on Standard Plate agar (triplicate plates). Plates were incubated at 37° C. for 24 hours prior to enumeration. The minimum effective dose of each acid was determined by linear regression.

Salmonella typhimurium [2] = test: Example 3: buffered organic acid mixtures with pelargonic acid in water; assay type: cell-based
Method: (§2) Procedure: Propionic and acetic acids were buffered with ammonium hydroxide to a pH of 3 and combined with pelargonic in the ratios above. Acid content of the buffered solutions was determined by weight to weight ratio calculation (weight of acid/total weight of buffered solution) and adjusted to provide an equal acid value for each treatment. […] The pHs of the deionized water solutions were recorded and any problems with solubility noted.
as §1

Salmonella typhimurium [3] = test: Study 4: pelargonic acid (1-20%) in buffered propionic or acetic acid in water; assay type: cell-based
Method: as §2, with “Propionic” for “Procedure: Propionic”, “listed.” for “above.”
as §1, with “enumeration.” for “enumeration. The minimum effective dose of each acid was determined by linear regression.”

Salmonella typhimurium [4] = test: Study 6: capric acid in acetic or propionic acid against salmonella in poultry feed; assay type: cell-based; conditions: Capric/Acetic acids, 24 hours after treatment
Method: Commercial poultry feed amended with Salmonella typhimurium was treated with 1 or 3 kg/MT of the solutions listed below. Twenty four hours after treatment, 10 gr of feed was added to 90 ml Butterfield buffer, mixed and then 100 ul of the solution was plated on Standard Plate agar (triplicate plates). Plates were incubated at 37° C. for 24 hours prior to enumeration.

M. gypseum = conditions: acids tested independently, cited from earlier work
[5] = Product Conc. 0.025 (% acid solution in water)
[6] = Product Conc. 0.05 (% acid solution in water)
[7] = Product Conc. 0.075 (% acid solution in water)
[8] = Product Conc. 0.1 (% acid solution in water)
[9] = Product Conc. 0.025 (% total acid solution in water), 4 hr
[10] = Product Conc. 0.025 (% total acid solution in water)
[11] = Product Conc. 0.05 (% total acid solution in water), 4 hr
[12] = Product Conc. 0.05 (% total acid solution in water)
[13] = Product Conc. 0.075 (% total acid solution in water), 4 hr
[14] = Product Conc. 0.075 (% total acid solution in water)
[15] = Product Conc. 0.1 (% total acid solution in water), 4 hr
[16] = Product Conc. 0.1 (% total acid solution in water)
[17] = Product Concentration 0.025 (% total acid solution in water)
[18] = Product Concentration 0.05 (% total acid solution in water)

Compound: CC(=O)O [Acetic pH 3, Acetic acid]
- MIC at 4 Hr (Salmonella typhimurium [1]): 0.176
- MIC at 24 HR (Salmonella typhimurium [1]): 0.073
- Salmonella at time Interval 4 hr % reduction (Salmonella typhimurium [1]; [5]): 27%
- Salmonella at time Interval 4 hr cfu/g (Salmonella typhimurium [1]; [5]): 1100 cfu/g
- Salmonella at time Interval 24 hr % reduction (Salmonella typhimurium [1]; [5]): 75%
- Salmonella at time Interval 24 hr cfu/g (Salmonella typhimurium [1]; [5]): 300 cfu/g
- Salmonella at time Interval 4 hr % reduction (Salmonella typhimurium [1]; [6]): 44%
- Salmonella at time Interval 4 hr cfu/g (Salmonella typhimurium [1]; [6]): 843 cfu/g
- Salmonella at time Interval 24 hr % reduction (Salmonella typhimurium [1]; [6]): 90%
- Salmonella at time Interval 24 hr cfu/g (Salmonella typhimurium [1]; [6]): 117 cfu/g
- Salmonella at time Interval 4 hr % reduction (Salmonella typhimurium [1]; [7]): 38%
- Salmonella at time Interval 4 hr cfu/g (Salmonella typhimurium [1]; [7]): 927 cfu/g
- Salmonella at time Interval 24 hr % reduction (Salmonella typhimurium [1]; [7]): 92%
- Salmonella at time Interval 24 hr cfu/g (Salmonella typhimurium [1]; [7]): 90 cfu/g
- Salmonella at time Interval 4 hr % reduction (Salmonella typhimurium [1]; [8]): 42%
- Salmonella at time Interval 4 hr cfu/g (Salmonella typhimurium [1]; [8]): 873 cfu/g
- Salmonella at time Interval 24 hr % reduction (Salmonella typhimurium [1]; [8]): 96%
- Salmonella at time Interval 24 hr cfu/g (Salmonella typhimurium [1]; [8]): 43 cfu/g
- Salmonella at time Interval 4 hr % reduction (Salmonella typhimurium [2]; [9]): 38%
- Salmonella at time Interval 4 hr cfu/g (Salmonella typhimurium [2]; [9]): 943 cfu/g
- Salmonella at time Interval 24 hr % reduction (Salmonella typhimurium [2]; [10]): 92%
- Salmonella at time Interval 24 hr cfu/g (Salmonella typhimurium [2]; [10]): 123 cfu/g
- Salmonella at time Interval 4 hr % reduction (Salmonella typhimurium [2]; [11]): 34%
- Salmonella at time Interval 4 hr cfu/g (Salmonella typhimurium [2]; [11]): 1007 cfu/g
- Salmonella at time Interval 24 hr % reduction (Salmonella typhimurium [2]; [12]): 92%
- Salmonella at time Interval 24 hr cfu/g (Salmonella typhimurium [2]; [12]): 120 cfu/g
- Salmonella at time Interval 4 hr % reduction (Salmonella typhimurium [2]; [13]): 34%
- Salmonella at time Interval 4 hr cfu/g (Salmonella typhimurium [2]; [13]): 1007 cfu/g
- Salmonella at time Interval 24 hr % reduction (Salmonella typhimurium [2]; [14]): 95%
- Salmonella at time Interval 24 hr cfu/g (Salmonella typhimurium [2]; [14]): 77 cfu/g
- Salmonella at time Interval 4 hr % reduction (Salmonella typhimurium [2]; [15]): 36%
- Salmonella at time Interval 4 hr cfu/g (Salmonella typhimurium [2]; [15]): 967 cfu/g
- Salmonella at time Interval 24 hr % reduction (Salmonella typhimurium [2]; [16]): 95%
- Salmonella at time Interval 24 hr cfu/g (Salmonella typhimurium [2]; [16]): 83 cfu/g
- Salmonella at time Interval 4 hr % reduction (Salmonella typhimurium [3]; [17]): 29%
- Salmonella at time Interval 4 hr cfu/g (Salmonella typhimurium [3]; [17]): 1000 cfu/g
- Salmonella at time Interval 24 hr % reduction (Salmonella typhimurium [3]; [17]): 96%
- Salmonella at time Interval 24 hr cfu/g (Salmonella typhimurium [3]; [17]): 60 cfu/g
- Salmonella at time Interval 4 hr % reduction (Salmonella typhimurium [3]; [18]): 32%
- Salmonella at time Interval 4 hr cfu/g (Salmonella typhimurium [3]; [18]): 950 cfu/g
- Salmonella at time Interval 24 hr % reduction (Salmonella typhimurium [3]; [18]): 99%
- Salmonella at time Interval 24 hr cfu/g (Salmonella typhimurium [3]; [18]): 20 cfu/g

Compound: CC(=O)O [Acetic acid]
- MIC at 4 HR (Salmonella typhimurium [2]; Minimum Inhibitory Concentration of Pelargonic when mixed with acetic or propionic acid (buffered to pH 3), by linear regression, 4 hr): 0.171
- % Reduction (Salmonella typhimurium [4]; 1 kg/ton): 41.3%
- cfu/g (Salmonella typhimurium [4]; 1 kg/ton): 3367 cfu/g
- % Reduction (Salmonella typhimurium [4]; 3 kg/ton): 54.6%
- cfu/g (Salmonella typhimurium [4]; 3 kg/ton): 2600 cfu/g

Compound: CCCCCCCCCC(=O)O [capric acid]
- minimum inhibitory concentration (MTC) to prevent growth of M. gypseum (M. gypseum; in liquid media): 75 µg/mL
- minimum inhibitory concentration (MTC) to prevent growth of M. gypseum (M. gypseum; on solid media): 20 µg/mL

Compound: CCC(=O)O [Propionic pH 3, Propionic acid]
- MIC at 4 Hr (Salmonella typhimurium [1]): 0.149
- MIC at 24 HR (Salmonella typhimurium [1]): 0.069
- Salmonella at time Interval 4 hr % reduction (Salmonella typhimurium [1]; [5]): 2%
- Salmonella at time Interval 4 hr cfu/g (Salmonella typhimurium [1]; [5]): 1467 cfu/g
- Salmonella at time Interval 24 hr % reduction (Salmonella typhimurium [1]; [5]): 84%
- Salmonella at time Interval 24 hr cfu/g (Salmonella typhimurium [1]; [5]): 190 cfu/g
- Salmonella at time Interval 4 hr % reduction (Salmonella typhimurium [1]; [6]): 44%
- Salmonella at time Interval 4 hr cfu/g (Salmonella typhimurium [1]; [6]): 847 cfu/g
- Salmonella at time Interval 24 hr % reduction (Salmonella typhimurium [1]; [6]): 93%
- Salmonella at time Interval 24 hr cfu/g (Salmonella typhimurium [1]; [6]): 83 cfu/g
- Salmonella at time Interval 4 hr % reduction (Salmonella typhimurium [1]; [7]): 35%
- Salmonella at time Interval 4 hr cfu/g (Salmonella typhimurium [1]; [7]): 973 cfu/g
- Salmonella at time Interval 24 hr % reduction (Salmonella typhimurium [1]; [7]): 95%
- Salmonella at time Interval 24 hr cfu/g (Salmonella typhimurium [1]; [7]): 60 cfu/g
- Salmonella at time Interval 4 hr % reduction (Salmonella typhimurium [1]; [8]): 60%
- Salmonella at time Interval 4 hr cfu/g (Salmonella typhimurium [1]; [8]): 603 cfu/g
- Salmonella at time Interval 24 hr % reduction (Salmonella typhimurium [1]; [8]): 98%
- Salmonella at time Interval 24 hr cfu/g (Salmonella typhimurium [1]; [8]): 27 cfu/g
- Salmonella at time Interval 4 hr % reduction (Salmonella typhimurium [2]; [9]): 25%
- Salmonella at time Interval 4 hr cfu/g (Salmonella typhimurium [2]; [9]): 1133 cfu/g
- Salmonella at time Interval 24 hr % reduction (Salmonella typhimurium [2]; [10]): 95%
- Salmonella at time Interval 24 hr cfu/g (Salmonella typhimurium [2]; [10]): 70 cfu/g
- Salmonella at time Interval 4 hr % reduction (Salmonella typhimurium [2]; [11]): 42%
- Salmonella at time Interval 4 hr cfu/g (Salmonella typhimurium [2]; [11]): 880 cfu/g
- Salmonella at time Interval 24 hr % reduction (Salmonella typhimurium [2]; [12]): 99%
- Salmonella at time Interval 24 hr cfu/g (Salmonella typhimurium [2]; [12]): 17 cfu/g
- Salmonella at time Interval 4 hr % reduction (Salmonella typhimurium [2]; [13]): 25%
- Salmonella at time Interval 4 hr cfu/g (Salmonella typhimurium [2]; [13]): 1133 cfu/g
- Salmonella at time Interval 24 hr % reduction (Salmonella typhimurium [2]; [14]): 99%
- Salmonella at time Interval 24 hr cfu/g (Salmonella typhimurium [2]; [14]): 20 cfu/g
- Salmonella at time Interval 4 hr % reduction (Salmonella typhimurium [2]; [15]): 44%
- Salmonella at time Interval 4 hr cfu/g (Salmonella typhimurium [2]; [15]): 857 cfu/g
- Salmonella at time Interval 24 hr % reduction (Salmonella typhimurium [2]; [16]): 99%
- Salmonella at time Interval 24 hr cfu/g (Salmonella typhimurium [2]; [16]): 13 cfu/g
- Salmonella at time Interval 4 hr % reduction (Salmonella typhimurium [3]; [17]): 29%
- Salmonella at time Interval 4 hr cfu/g (Salmonella typhimurium [3]; [17]): 990 cfu/g
- Salmonella at time Interval 24 hr % reduction (Salmonella typhimurium [3]; [17]): 91%
- Salmonella at time Interval 24 hr cfu/g (Salmonella typhimurium [3]; [17]): 130 cfu/g
- Salmonella at time Interval 4 hr % reduction (Salmonella typhimurium [3]; [18]): 29%
- Salmonella at time Interval 4 hr cfu/g (Salmonella typhimurium [3]; [18]): 1000 cfu/g
- Salmonella at time Interval 24 hr % reduction (Salmonella typhimurium [3]; [18]): 96%
- Salmonella at time Interval 24 hr cfu/g (Salmonella typhimurium [3]; [18]): 50 cfu/g

From US10785975B2, “Water and feed antimicrobial preservative” (priority 2009, dated 2020)
